According to patent US8084490B2, “Sulfamate and sulfamide derivatives useful for the treatment of epilepsy and related disorders” (Janssen Pharmaceutica N.V., priority 2004, dated 2011):

Legend:
CF-1 male albino mice = test: Maximal Electroshock Test (MES); format: in vivo; conditions: oral; for MES Activity (in words): time not stated
Experimental: Anticonvulsant activity was determined using the MES test, run according to the procedure described in detail below. Swinyard E A, Woodhead J H, White H S, Franklin M R. Experimental selection, quantification, and evaluation of anticonvulsants. In Levy R H, et al., eds. Antiepileptic Drugs. 3rd ed. New York: Raven Press, 1989:85-102
CF-1 male albino mice (25-35 g) were fasted for 16 hours before testing. Mice were randomly selected into control and test groups, with the animals dosed with vehicle or test compound, at varying concentrations, respectively. On the study date, at 30 minutes prior to shock, the mice were orally dosed with vehicle (0.5% methylcellulose) or test compound (100-300 mg/kg). Seizures were induced by trans-corneal electric shock using a 60-Hz alternating current, 50 mA, delivered for 0.2 sec. The mice in the test groups were subjected to electrical stimulus at time intervals between 15 minutes and 4 hours following administration of test compound. […] The test was complete when the entire course of the convulsion has been observed (typically, less than 1 minute after electrical stimulation), and the mice were then immediately euthanized by carbon dioxide inhalation.
Abolition of the full body tonic extensor component of the seizure was taken as the endpoint of the test. […] The ED50 value of the test compound (calculated when appropriate) was the calculated dose required to block the hind limb tonic-extensor component of the MES-induced seizure in 50% of the rodents tested. A probit analysis was used to calculate the ED50 and 95% fiducial limits (FL).
Representative compounds of the present invention were tested according to the procedure described above, with results as listed in Table 4 below. Results are listed as number of mice with full body tonic extension prevented/total number of mice tested @ time (at a given test compound dosage level).

carbonic anhydrase = conditions: background statement, no assay details; cited from earlier work

SMILES: NS(=O)(=O)OC[C@H]1COc2cc(Cl)ccc2O1 (stereo in doubt) [ID No. 12, Sulfamic acid, 6-chloro-2,3-dihydro-benzo[1,4]dioxin-2-ylmethyl ester]
- melting point: 113 to 116 °C

SMILES: NS(=O)(=O)OCC1CCc2ccccc2O1 (stereo not shown) [ID No. 11, Chroman-2-ylmethylsulfamate]
- melting point: 87 to 90 °C

SMILES: CN(CC1COc2ccccc2O1)S(N)(=O)=O (stereo not shown) [ID No. 7, N-(2,3-Dihydro-benzo[1,4]dioxin-2-ylmethyl)-N-methylsulfamide]
- melting point: 97 to 98 °C

SMILES: Cc1ccc2c(c1)O[C@@H](CNS(N)(=O)=O)CO2 [ID No. 19, (2S)-(−)-N-(7-Methyl-2,3-dihydro-benzo[1,4]dioxin-2-ylmethyl)-sulfamide]
- MES Activity: number of mice with full body tonic extension prevented/total number of mice tested (CF-1 male albino mice; 300 mg/kg, @ 0.5 h): 5/5 @ 0.5 h (300 mg/kg)

SMILES: CC1(C)O[C@@H]2[C@@H](CO[C@@]3(COS(N)(=O)=O)OC(C)(C)O[C@@H]23)O1 [Topiramate]
- carbonic anhydrase inhibition (carbonic anhydrase): single digit micromolar

SMILES: CN(C)S(=O)(=O)NCC1COc2ccccc2O1 (stereo not shown) [ID No. 6, N-(2,3-Dihydro-benzo[1,4]dioxin-2-ylmethyl)-N′,N′ dimethylsulfamide]
- melting point: 76 to 78 °C

SMILES: NS(=O)(=O)NC[C@H]1COc2ccccc2O1 [ID No. 4, (2S)-(−)-N-(2,3-Dihydro-benzo[1,4]dioxin-2-ylmethyl)-sulfamide]
- MES Activity: number of mice with full body tonic extension prevented/total number of mice tested (CF-1 male albino mice; 300 mg/kg, @ 1 h): 5/5 @ 1 h (300 mg/kg)

SMILES: NS(=O)(=O)NC[C@H]1COc2cc(Cl)c(Cl)cc2O1 [ID No. 29, (2S)-(−)-N-(6,7 Dichloro-2,3-dihydro-benzo[1,4]dioxin-2-ylmethyl)-sulfamide]
- MES Activity: number of mice with full body tonic extension prevented/total number of mice tested (CF-1 male albino mice; 100 mg/kg, @ 4 h): 3/5 @ 4 h (100 mg/kg)
- melting point: 119 to 121 °C

SMILES: Nc1ccc2c(c1)O[C@@H](CNS(N)(=O)=O)CO2 [ID No. 36, (2S)-(−)-N-(7-Amino-2,3-dihydro-benzo[1,4]dioxin-2-ylmethyl)-sulfamide]
- MES Activity (in words) (CF-1 male albino mice; 100 mg/kg): Inactive @ 100 and 300 mg/kg
- MES Activity (in words) (CF-1 male albino mice; 300 mg/kg): Inactive @ 100 and 300 mg/kg

SMILES: NS(=O)(=O)NCC1CCc2ccccc2O1 (stereo not shown) [ID No. 10, Chroman-2-ylmethylsulfamide]
- melting point: 100 to 101 °C

SMILES: NS(=O)(=O)NCCC1COc2ccccc2O1 (stereo not shown) [ID No. 16, 2-(2,3-Dihydro-benzo[1,4]dioxin-2-yl)-ethylsulfamide]
- MES Activity: number of mice with full body tonic extension prevented/total number of mice tested (CF-1 male albino mice; 300 mg/kg, @ 0.5 h): 5/5 @ 0.5 h (300 mg/kg)
- melting point: 101 to 103 °C

SMILES: NS(=O)(=O)OC[C@H]1COc2cc(Cl)c(Cl)cc2O1 [ID No. 27, Sulfamic acid, 6.7 dichloro-2,3-dihydro-benzo[1,4]dioxin-2-ylmethyl ester]
- MES Activity: number of mice with full body tonic extension prevented/total number of mice tested (CF-1 male albino mice; 100 mg/kg, @ 4 h): 5/5 @ 4 h (100 mg/kg)
- melting point: 109 to 111 °C
